These results are taken from paper PMC7340254, “Structure-based screening of binding affinities via small-angle X-ray scattering” (IUCrJ, 2020).

Test [1] addresses T1, aspartate/glutamate-binding protein (DEBP) (Escherichia coli, UniProt P37902).
T1 construct: made in house; host or cells: E. coli BL21(DE3)
Put plainly: SAXS-based ligand titration. The arrangement: species or system E. coli. The text has this: Their preliminary results have been excluded from this report.

The target of a further test is DEBP. Further details: method as in Clifton & Jackson (2016). The conditions noted are these: ref Clifton & Jackson (2016), read-out: K D (ITC, literature); cited from earlier work.
Another test addresses GlnBP. Further details: method as in Clifton & Jackson (2016). The conditions noted are these: ref Clifton & Jackson (2016), read-out: K D (ITC, literature); cited from earlier work.
Test [2] concerns the target T2, histidine-binding protein (HisBP) (Escherichia coli, UniProt P0AEU0). The conditions noted are these: His:HisBP.
Experimental: (§1) Titrations were conducted at fixed protein concentrations to exclude signal-to-noise factors. An initial mass concentration of 2.0 or 4.0 mg ml^−1 was employed in prospective experiments, then scaled to 2.0, 1.0, 0.5 and 0.25 mg ml^−1 in later concentration-variation studies. […] A total of eight beamline experiments were conducted, using the automated sample changing environments available on site, operated in constant-flow mode: three times at ESRF BM29, three at DESY P12, once at Australian Synchrotron SAXS/WAXS and once at Diamond B21. […] Furthermore, experiments at ESRF BM29 and Diamond B21 were carried out on site, while the DESY P12 experiment was carried out by mail-in. For these measurements, samples were prepared by pipetting ligand–protein mixtures onto 96-well plates prior to transport. As for the Australian Synchrotron measurements, apo–HisBP was lyophilized in its final buffer and reconstituted on site using pure H2O and then mixed with the ligands in 96-well plates.
(§2) Buffer-subtracted intensities provided from respective synchrotron pipelines were used as starting points for analysis. […] Thus, an intermediate value of 7.2 nm was fixed for all computations involving D max including V R.
(§3) This was used to assist in locating data points affected by sample handling errors or measurement failures, along with detectable aggregation. The ideal minimum angle after removal of parasitic scattering is 0.1–0.15 nm^−1, although a more conservative cutoff was used to collectively eliminate residual aggregation. The maximum usable q was determined by visual inspection of noise. The final ranges used across all HisBP beamline sessions were: 0.2–2.0 nm^−1 at 20 µM and below, 0.25–2.5 nm^−1 at 40 µM, and 0.3–3 nm^−1 above 80 µM. The q-ranges for DEBP and GlnBP were set to 0.1–2.8 nm^−1.
(§4) A common scattering reference is created per HisBP concentration and per beamline experiment by averaging apo protein replicates after discarding outliers. This reference is used for both V R and χlin computations.
(§5) To fit binding curves against metrics, we consider all titrations conducted per protein concentration per beamline experiment as a single set, after removing data points resulting from aggregation, preparation errors or measurement errors. […] Since the two-state binding curve at constant [R] cannot effectively discriminate between K D values much larger or smaller than [R], fitted K D values are limited to within four orders of magnitude of the receptor concentration (cf. Fig. S1). […] Error bars indicate σ of logK D from the ensemble of replicate predictions. For metrics where uncertainty was not computed (V R and V P), the uncertainty was estimated by single-point removal, where K D was recomputed after removal of each titration point. The σ of the resulting replicates are taken as the σ of logK D. To eliminate cases where the fitting process fails due to ill-constrained parameters, replicates were discarded if the fitted apo–holo differences were >3σ from the mean value of all replicates.
For a further test, the target named is HisBP. Further details: method as in Paul et al. (2016). Conditions: ref Paul et al. (2016), read-out: K D (ITC, literature); cited from earlier work.
In test [3] the target is T2, histidine-binding protein (HisBP). Briefly: biochemical.
Experimental: All ITC measurements were conducted on a Malvern MicroCal PEAQ ITC at 20°C with stirring at 200 rev min^−1 using the same buffer as in SAXS measurements. The cell was initially loaded with 200 µl of 20 µM protein with an initial ligand concentration of 200 µM in the syringe to quantify His:HisBP binding. This was further adjusted in subsequent runs to resolve weaker interactions as necessary.
Test [4] shares this target. Put plainly: biochemical. This is another data set of the same source.
Experimental: as §1, §2, §3, §4, §5
Where [5] appears, read: K D fitted to SAXS V R titration curves, AustSynch, 20s exposure, […] 10^13 photons, HisBP 19 µM.
[6] abbreviates: K D fitted to SAXS V R titration curves, AustSynch, 20s exposure, […] 10^13 photons, HisBP […] µM.
Setting [7] is: K D fitted to SAXS V R titration curves, AustSynch, 20s exposure, […] 10^13 photons, HisBP 76 µM.
[8] abbreviates: K D fitted to SAXS V R titration curves, DESY, 4s exposure, […] 10^13 photons, HisBP 10 µM.
Setting [9] is: K D fitted to SAXS V R titration curves, DESY, 4s exposure, […] 10^13 photons, HisBP 20 µM.
Where [10] appears, read: K D fitted to SAXS V R titration curves, DESY, 4s exposure, […] 10^13 photons, HisBP 40 µM.
Where [11] appears, read: K D fitted to SAXS V R titration curves, DESY, 4s exposure, […] 10^13 photons, HisBP 80 µM.
Setting [12] is: K D fitted to SAXS V R titration curves, Diamond, 40s exposure, […] 10^14 photons, HisBP 10 µM.
Where [13] appears, read: K D fitted to SAXS V R titration curves, Diamond, 40s exposure, […] 10^14 photons, HisBP 20 µM.
Setting [14] is: K D fitted to SAXS V R titration curves, Diamond, 40s exposure, […] 10^14 photons, HisBP 40 µM.
The mark [15] stands for this setting: K D fitted to SAXS V R titration curves, Diamond, 40s exposure, […] 10^14 photons, HisBP 80 µM.
[16] abbreviates: K D fitted to SAXS V R titration curves, ESRF, 5s exposure, 3.0 × 10^12 photons, HisBP 160 µM.
The mark [17] stands for this setting: KD fitted to SAXS Rg curves, AustSynch, 20s exposure, HisBP […] µM.
Setting [18] is: KD fitted to SAXS Rg curves, AustSynch, 20s exposure, HisBP 76 µM.
Where [19] appears, read: KD fitted to SAXS Rg curves, DESY, 4s exposure, HisBP 10 µM.
The mark [20] stands for this setting: KD fitted to SAXS Rg curves, DESY, 4s exposure, HisBP 20 µM.
[21] abbreviates: KD fitted to SAXS Rg curves, DESY, 4s exposure, HisBP 40 µM.
Where [22] appears, read: KD fitted to SAXS Rg curves, DESY, 4s exposure, HisBP 80 µM.
Setting [23] is: KD fitted to SAXS Rg curves, ESRF, 5s exposure, HisBP 160 µM.
[24] abbreviates: KD fitted to SAXS Vc curves, AustSynch, 20s exposure, HisBP […] µM.
Setting [25] is: KD fitted to SAXS Vc curves, AustSynch, 20s exposure, HisBP 76 µM.
[26] abbreviates: KD fitted to SAXS Vc curves, DESY, 4s exposure, HisBP 40 µM.
Setting [27] is: KD fitted to SAXS Vc curves, DESY, 4s exposure, HisBP 80 µM.
Where [28] appears, read: KD fitted to SAXS Vc curves, ESRF, 5s exposure, HisBP 160 µM.
The mark [29] stands for this setting: KD fitted to SAXS χlin. curves, AustSynch, 20s exposure, HisBP […] µM.
Setting [30] is: KD fitted to SAXS χlin. curves, AustSynch, 20s exposure, HisBP 76 µM.
[31] abbreviates: KD fitted to SAXS χlin. curves, DESY, 4s exposure, HisBP 10 µM.
[32] abbreviates: KD fitted to SAXS χlin. curves, DESY, 4s exposure, HisBP 20 µM.
Setting [33] is: KD fitted to SAXS χlin. curves, DESY, 4s exposure, HisBP 40 µM.
[34] abbreviates: KD fitted to SAXS χlin. curves, DESY, 4s exposure, HisBP 80 µM.
The mark [35] stands for this setting: KD fitted to SAXS χlin. curves, Diamond, 40s exposure, HisBP 40 µM.
Setting [36] is: KD fitted to SAXS χlin. curves, Diamond, 40s exposure, HisBP 80 µM.
Where [37] appears, read: KD fitted to SAXS χlin. curves, ESRF, 5s exposure, HisBP 152 µM.

Like-named read-outs stand apart in the source and are kept apart here.

T2 sequence (P0AEU0 23-260): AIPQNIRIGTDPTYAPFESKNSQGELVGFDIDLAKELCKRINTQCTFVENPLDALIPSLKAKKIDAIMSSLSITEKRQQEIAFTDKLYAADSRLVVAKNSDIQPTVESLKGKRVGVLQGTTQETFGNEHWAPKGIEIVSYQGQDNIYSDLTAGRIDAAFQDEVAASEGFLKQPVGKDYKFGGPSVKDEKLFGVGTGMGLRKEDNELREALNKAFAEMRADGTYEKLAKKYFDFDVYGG
T1 sequence (P37902 28-302): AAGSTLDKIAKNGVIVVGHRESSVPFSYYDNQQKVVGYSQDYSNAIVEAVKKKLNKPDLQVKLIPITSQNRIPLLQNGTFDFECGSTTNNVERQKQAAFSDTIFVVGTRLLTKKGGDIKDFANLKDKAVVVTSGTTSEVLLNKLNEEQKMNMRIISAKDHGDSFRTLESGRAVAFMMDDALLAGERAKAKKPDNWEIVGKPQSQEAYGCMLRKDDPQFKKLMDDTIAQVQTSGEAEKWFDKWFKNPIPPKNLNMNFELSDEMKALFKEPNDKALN

With `NC(=O)C[C@H](N)C(=O)O` [Asn], the “binding suggested by SAXS titrations” value in test [1] (DEBP, 2 mg ml^−1, 10^12 photons) is reported as “unexpected binding”.
As to `N[C@@H](CC(=O)O)C(=O)O` [Asp, aspartate], the Kd at DEBP was 1.73 ± 0.49 µM.
Consider `NC(=O)CC[C@H](N)C(=O)O` [Gln, glutamine], for which the Kd at GlnBP is 0.106 ± 0.065 µM.
Turning to `N[C@@H](CCC(=O)O)C(=O)O` [Glu, glutamate], the “SAXS R g Exp. (saturated)” value in test [1] (Glu:DEBP, ligand-excess conditions) is listed as 20.6 ± 1.3 Å. Also, the “SAXS ΔR g” value in test [1] (Glu:DEBP, saturated versus apo) is recorded as −2.6 Å. On DEBP, the Kd was 0.334 ± 0.12 µM.
Take `N[C@@H](Cc1c[nH]cn1)C(=O)O` [His, histidine]: in test [2] (ligand-excess conditions), the “SAXS R g Exp. (saturated)” value worked out at 18.3 ± 1.0 Å. Moreover, in test [2] (saturated versus apo), the “SAXS ΔR g” value is −1.3 Å. Further, the Kd was 0.064 ± 0.01 µM at HisBP; 0.048 ± 0.0052 µM in test [3]; 0.062 ± 0.028 µM in test [4] (setting [5]); 1.5 ± 0.7 µM in test [4] (setting [6]); 3.6 ± 0.74 µM in test [4] (setting [7]); 84 ± 68 µM in test [4] (setting [8]). Moreover, the Kd was 1 ± 0.19 µM in test [4] (setting [9]); 3.7 ± 0.58 µM in test [4] (setting [10]); 6.4 ± 1.1 µM in test [4] (setting [11]); 0.0014 ± 0.00092 µM in test [4] (setting [12]); 0.0051 ± 0.0041 µM in test [4] (setting [13]); 0.013 ± 0.011 µM in test [4] (setting [14]). Besides, the Kd came to 1.3 ± 0.5 µM in test [4] (setting [15]); 0.24 ± 0.14 µM in test [4] (K D fitted to SAXS V R titration curves, ESRF, 5s exposure, 3.0 × 10^12 photons, HisBP […] µM); 0.37 ± 0.47 µM in test [4] (setting [16]); 6.3 ± 0.87 µM in test [4] (setting [17]); 1.7 ± 0.87 µM in test [4] (setting [18]); 100 ± 140 µM in test [4] (setting [19]). In addition, the Kd in test [4] (setting [20]) came out at 0.0027 ± 0.0047 µM; in test [4] (setting [21]), 4.2 ± 2.4 µM; in test [4] (setting [22]), 8.2 ± 1.8 µM; in test [4] (KD fitted to SAXS Rg curves, Diamond, 40s exposure, HisBP 10 µM), 0.018 µM; in test [4] (KD fitted to SAXS Rg curves, Diamond, 40s exposure, HisBP 20 µM) it was 0.015 µM; in test [4] (KD fitted to SAXS Rg curves, Diamond, 40s exposure, HisBP 80 µM), 2.2 ± 3.1 µM. The Kd came out at 0.16 µM in test [4] (KD fitted to SAXS Rg curves, ESRF, 5s exposure, HisBP […] µM); 0.61 ± 0.12 µM in test [4] (setting [23]); 0.16 µM in test [4] (KD fitted to SAXS Vc curves, AustSynch, 20s exposure, HisBP 19 µM); 5.3 ± 3.7 µM in test [4] (setting [24]); 25 ± 8.1 µM in test [4] (setting [25]); 19 µM in test [4] (setting [26]). The Kd was found to be 5.8 µM in test [4] (setting [27]); 9.9 µM in test [4] (KD fitted to SAXS Vc curves, Diamond, 40s exposure, HisBP 80 µM); 2.8 µM in test [4] (KD fitted to SAXS Vc curves, ESRF, 5s exposure, HisBP 7.6 µM); 200 ± 490 µM in test [4] (KD fitted to SAXS Vc curves, ESRF, 5s exposure, HisBP […] µM); 0.88 ± 2.4 µM in test [4] (setting [28]); 1.2 µM in test [4] (KD fitted to SAXS χlin. curves, AustSynch, 20s exposure, HisBP 19 µM). The Kd in test [4] (setting [29]) was determined as 4.5 ± 1.5 µM; in test [4] (setting [30]), 5.1 ± 0.75 µM; in test [4] (setting [31]) it was 4.4 ± 2.8 µM; in test [4] (setting [32]) it was 2.9 ± 1.5 µM; in test [4] (setting [33]), 13 ± 3.5 µM; in test [4] (setting [34]), 15 ± 1.9 µM. Further, the Kd in test [4] (KD fitted to SAXS χlin. curves, Diamond, 40s exposure, HisBP 20 µM) is 0.07 µM; in test [4] (setting [35]), 4.3 ± 4.7 µM; in test [4] (setting [36]), 20 ± 3.4 µM; in test [4] (KD fitted to SAXS χlin. curves, ESRF, 5s exposure, HisBP 7.6 µM), 0.5 µM; in test [4] (KD fitted to SAXS χlin. curves, ESRF, 5s exposure, HisBP […] µM), 0.099 µM; in test [4] (setting [37]), 0.32 ± 0.051 µM.
With `NCCCC[C@H](N)C(=O)O` [Lys, lysine], the Kd at HisBP is 19.5 ± 6 µM; in test [3] it was 62 ± 11 µM; in test [4] (setting [5]), 110 ± 10 µM; in test [4] (setting [6]), 32 ± 4.6 µM; in test [4] (setting [7]), 95 ± 11 µM; in test [4] (setting [8]), 0.0023 ± 0.0016 µM. Besides, the Kd in test [4] (setting [9]) turned out to be 61 ± 6.4 µM; in test [4] (setting [10]), 720 ± 350 µM; in test [4] (setting [11]), 58 ± 7.5 µM; in test [4] (setting [12]) it was 230 ± 200 µM; in test [4] (setting [13]), 47 ± 3.6 µM; in test [4] (setting [14]), 320 ± 210 µM. The Kd in test [4] (setting [15]) amounted to 89 ± 9.6 µM; in test [4] (setting [16]), 49 ± 4.1 µM; in test [4] (KD fitted to SAXS Rg curves, AustSynch, 20s exposure, HisBP 19 µM), 460 ± 230 µM; in test [4] (setting [17]), 340 ± 120 µM; in test [4] (setting [18]), 0.031 ± 0.025 µM; in test [4] (setting [19]) it was 1.3 ± 2.5 µM. The Kd in test [4] (setting [20]) was found to be 38 ± 28 µM; in test [4] (setting [21]), 0.086 µM; in test [4] (setting [22]) it was 36 ± 42 µM; in test [4] (KD fitted to SAXS Rg curves, Diamond, 40s exposure, HisBP 40 µM) it was 1500 ± 3200 µM; in test [4] (setting [23]) it was 71 ± 8.9 µM; in test [4] (setting [24]), 450 ± 510 µM. Moreover, the Kd in test [4] (setting [25]) was found to be 9.5 µM; in test [4] (KD fitted to SAXS Vc curves, DESY, 4s exposure, HisBP 10 µM), 0.18 µM; in test [4] (KD fitted to SAXS Vc curves, DESY, 4s exposure, HisBP 20 µM), 44 µM; in test [4] (setting [26]), 2.8 µM; in test [4] (setting [27]) it was 9 µM; in test [4] (KD fitted to SAXS Vc curves, Diamond, 40s exposure, HisBP 40 µM) it was 57 µM. For the same compound, the Kd in test [4] (setting [28]) is 280 ± 450 µM; in test [4] (setting [29]), 150 ± 46 µM; in test [4] (setting [30]), 130 ± 14 µM; in test [4] (setting [31]), 0.46 ± 0.5 µM; in test [4] (setting [32]), 2.1 ± 3.2 µM; in test [4] (setting [33]), 160 ± 230 µM. Besides, the Kd in test [4] (setting [34]) amounted to 150 ± 40 µM; in test [4] (setting [35]), 4500 ± 3400 µM; in test [4] (setting [36]) it was 260 ± 150 µM; in test [4] (setting [37]) it was 180 ± 15 µM.
For the compound `NCCC[C@H](N)C(=O)O` [Orn, ornithine], the Kd at HisBP is 72 ± 4 µM.
